In ChEMBL document CHEMBL1201862, “PubChem BioAssay data set” (2004):
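Each compound was tested at five concentrations against cells in 96-well plates for 48 hours. GI50 marks 50% less growth.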 Calls of active or inactive are those of the source. Rule as the data show it: active = GI50 up to about 1.1 µM and inactive = higher.

Key:
Test in all cases: NCI tumour cell line growth inhibition, 48 h
[1] = system: A498
[2] = system: A549
[3] = system: ACHN
[4] = system: CAKI-1
[5] = system: CCRF-CEM
[6] = system: DU-145
[7] = system: HCT-116
[8] = system: MCF7
[9] = system: MDA-MB-231
[10] = system: MDA-MB-435
[11] = system: MDA-N
[12] = system: OVCAR-3
[13] = system: OVCAR-5
[14] = system: RXF 393
[15] = system: SF-539
[16] = system: SK-MEL-5
[17] = system: SK-OV-3
[18] = system: SR
[19] = system: SW-620
[20] = system: HCC 2998

SMILES	GI50 [1]	GI50 [2]	GI50 [3]	GI50 [4]	GI50 [5]	GI50 [6]	GI50 [7]	GI50 [8]	GI50 [9]	GI50 [10]	GI50 [11]	GI50 [12]	GI50 [13]	GI50 [14]	GI50 [15]	GI50 [16]	GI50 [17]	GI50 [18]	GI50 [19]	GI50 [20]
O=C(O)c1nnsc1COCc1ccccc1	> 100 µM (inactive)	> 100 µM (inactive)	> 100 µM (inactive)	> 100 µM (inactive)	> 100 µM (inactive)	> 100 µM (inactive)	> 100 µM (inactive)	> 100 µM (inactive)	> 100 µM (inactive)	> 100 µM (inactive)	> 100 µM (inactive)	> 100 µM (inactive)	> 100 µM (inactive)	> 100 µM (inactive)	> 100 µM (inactive)	> 100 µM (inactive)	> 100 µM (inactive)	> 100 µM (inactive)	> 100 µM (inactive)	
CC(C)=CCNc1ncnc2c1c(C#N)cn2C1OC(CO)C(O)C1O (stereo not given)	24 µM (inactive)	8.32 µM (inactive)	9.82 µM (inactive)	73.8 µM (inactive)	3.85 µM (inactive)	10.9 µM (inactive)	4.61 µM (inactive)	< 0.019 µM (active)	33.7 µM (inactive)	31.1 µM (inactive)	42.1 µM (inactive)	3.66 µM (inactive)	> 66.2 µM (inactive)	71.1 µM (inactive)	> 72.1 µM (inactive)	21.7 µM (inactive)	16.9 µM (inactive)	5.45 µM (inactive)	10 µM (inactive)	
CC(C)=CC(=O)C[C@H]1C(=O)O[C@@H]2C[C@H]3C(C)=CC(=O)[C@@H](O)[C@]3(C)[C@H]3[C@@]4(O)OC[C@]32[C@@H]1[C@@H](C)[C@H]4O	0.236 µM (active)	0.122 µM (active)	0.0278 µM (active)	0.0975 µM (active)	< 0.01 µM (active)	0.0177 µM (active)	< 0.01 µM (active)	< 0.01 µM (active)	0.0454 µM (active)	0.0222 µM (active)	< 0.0189 µM (active)	< 0.0146 µM (active)	0.0711 µM (active)		< 0.01 µM (active)	< 0.01 µM (active)	0.187 µM (active)	< 0.01 µM (active)	0.0281 µM (active)	0.0313 µM (active)
COc1ccc(-c2coc3c4c(ccc3c2=O)OCO4)cc1OC	> 100 µM (inactive)	55.6 µM (inactive)	49.2 µM (inactive)	91.6 µM (inactive)	> 100 µM (inactive)	> 100 µM (inactive)	> 100 µM (inactive)	91 µM (inactive)	45.4 µM (inactive)	5.87 µM (inactive)	5.79 µM (inactive)	23.8 µM (inactive)	> 100 µM (inactive)		40.6 µM (inactive)	55.5 µM (inactive)	24.4 µM (inactive)	8.87 µM (inactive)	> 100 µM (inactive)	> 100 µM (inactive)
COc1cc(C2SCC(=O)N2c2ccc(Cl)cc2)cc(I)c1O (stereo not given)		46.7 µM (inactive)		6.43 µM (inactive)	46.1 µM (inactive)	> 100 µM (inactive)	18.5 µM (inactive)	4.75 µM (inactive)	> 100 µM (inactive)	1.56 µM (inactive)	3.37 µM (inactive)	33.8 µM (inactive)	> 100 µM (inactive)	> 100 µM (inactive)	> 35.9 µM (inactive)	6.52 µM (inactive)	> 100 µM (inactive)	3.53 µM (inactive)	> 100 µM (inactive)	65.2 µM (inactive)
Cc1ccc(/N=C2N=C(Cl)/C(=C\c3ccco3)N\2)cc1	> 100 µM (inactive)	> 100 µM (inactive)	> 100 µM (inactive)	> 100 µM (inactive)	> 100 µM (inactive)	> 100 µM (inactive)	> 100 µM (inactive)	> 100 µM (inactive)	> 100 µM (inactive)	> 100 µM (inactive)	> 100 µM (inactive)	> 100 µM (inactive)	> 100 µM (inactive)	> 100 µM (inactive)	> 100 µM (inactive)	> 100 µM (inactive)	> 100 µM (inactive)	96.8 µM (inactive)	> 100 µM (inactive)	
Cc1nc2ccc(S(=O)(=O)O)cc2c(=O)n1-c1ccc(C(=O)NN2C(=O)C(Cl)C2c2ccccc2O)cc1 (stereo not given)	> 100 µM (inactive)	> 100 µM (inactive)	> 100 µM (inactive)	> 100 µM (inactive)	> 100 µM (inactive)	> 100 µM (inactive)	> 100 µM (inactive)	> 100 µM (inactive)	> 100 µM (inactive)	> 100 µM (inactive)	> 100 µM (inactive)	> 100 µM (inactive)	> 100 µM (inactive)	> 100 µM (inactive)	92.3 µM (inactive)	> 100 µM (inactive)	> 100 µM (inactive)	> 100 µM (inactive)	> 100 µM (inactive)	
C=C(C)C#CC(O)(C(=O)OC1CCN(C)CC1)C(C)C (stereo not given)		> 100 µM (inactive)	> 100 µM (inactive)	> 100 µM (inactive)	> 100 µM (inactive)	> 100 µM (inactive)	> 100 µM (inactive)	> 100 µM (inactive)	> 100 µM (inactive)	> 100 µM (inactive)	> 100 µM (inactive)	> 100 µM (inactive)	> 100 µM (inactive)	> 100 µM (inactive)	> 100 µM (inactive)	> 100 µM (inactive)	> 100 µM (inactive)	> 100 µM (inactive)	> 100 µM (inactive)	> 100 µM (inactive)
C[N+]1(CCC(=O)c2ccco2)CC2CCC(CC2)C1 (stereo not given)	> 100 µM (inactive)	> 100 µM (inactive)	> 100 µM (inactive)	> 100 µM (inactive)		> 100 µM (inactive)	> 100 µM (inactive)	> 100 µM (inactive)	> 100 µM (inactive)	> 100 µM (inactive)	> 100 µM (inactive)	> 100 µM (inactive)	> 100 µM (inactive)	> 100 µM (inactive)	> 100 µM (inactive)	> 100 µM (inactive)		> 100 µM (inactive)	> 100 µM (inactive)	
COC(=O)c1c(C(=O)OC)c2c3ccccc3n(C)c2c2c1c1ccccc1n2C	95.1 µM (inactive)	65.2 µM (inactive)	> 100 µM (inactive)	> 100 µM (inactive)	> 100 µM (inactive)	> 100 µM (inactive)	> 100 µM (inactive)	> 100 µM (inactive)	17.1 µM (inactive)	> 100 µM (inactive)	> 100 µM (inactive)		61.1 µM (inactive)		45.9 µM (inactive)	74.5 µM (inactive)	50.2 µM (inactive)	> 100 µM (inactive)	> 100 µM (inactive)	> 100 µM (inactive)
CCN(C(=O)N[C@@H](CC(C)C)C(=O)NCC(=O)OC)c1ccccc1		> 100 µM (inactive)	> 100 µM (inactive)	> 100 µM (inactive)	> 100 µM (inactive)	> 100 µM (inactive)	> 100 µM (inactive)	> 100 µM (inactive)	> 100 µM (inactive)	> 100 µM (inactive)	> 100 µM (inactive)	> 100 µM (inactive)	> 100 µM (inactive)	54 µM (inactive)	41 µM (inactive)	75.5 µM (inactive)	> 100 µM (inactive)	> 100 µM (inactive)	> 100 µM (inactive)	> 100 µM (inactive)
